{"source": "patent US20060046988A1", "about": "“Methoprene formulations for the control of tick infestations” (priority 2004, published 2006)", "test_system": "Rhipicephalus sanguineus", "assay": "In vitro immersion of engorged female ticks in (S)-methoprene: oviposition, egg mass weight, egg hatch", "details": "for Eggs Weight: Day 13; for Eggs Hatch (%): 48 days after exposure; for inhibition at 100 ppm / inhibition at 1000 ppm / inhibition at 10000 ppm / inhibition at 100000 ppm: Rhipicephalus sanguineus; for Egg Mass Per Tick / Total Egg Mass / Total Viable Egg Mass / Viable Egg Mass Per Tick / Reduction in Ticks Laying Eggs: replicates combined", "method": "The effect of (S)-methoprene on oviposition, egg mass weights, and egg eclosion was measured in adult females of a colonized strain of the brown dog tick, Rhipicephalus sanguineus. Approximately fifty R. sanguineus ticks were fed on twelve dogs each. Fully engorged females that dropped from the dogs over a period of two days were collected and combined into replicates. The following replicates were formed: Replicate A-50 ticks, Replicate B-40 ticks, and Replicate C-10 ticks. From each replicate A-C, 5 groups of equal numbers of ticks were formed, each group of ticks having similar combined body weights. Each of the 5 groups of ticks was randomly allocated to a treatment group.\nThe treatment groups were: Treatment I-Control: acetone/water (40%: 60%); Treatment 2-100 ppm (S)-methoprene dissolved in acetone/water (40:60); Treatment 3-1,000 ppm (S)-methoprene dissolved in acetone/water (40:60); Treatment 4-10,000 ppm (S)-methoprene dissolved in acetone/water (40:60); and Treatment 5-100,000 ppm (S)-methoprene dissolved in acetone/water (40:60). Each group of ticks was immersed in the appropriate test solution for two mins, after which they were removed, dried on a paper towel and placed in a clean container. All ticks in all treatment groups were kept in an environmental chamber maintained at 26-27° Celsius and 65-87% relative humidity. The number of ticks that laid eggs and total egg mass weights for each replicate of each treatment group was recorded 13 days after exposure to treatment. Additionally, an estimation of percentage of egg hatching for each replicate in each treatment group was recorded 48 days after exposure to treatment.\nThe number of ticks laying eggs, egg mass weights, percentage of eggs that hatched, and weight of viable eggs are provided in Table 1.", "key": {"[1]": {"details": "100 ppm, Replicate A, 10 ticks treated"}, "[2]": {"details": "100 ppm, Replicate B, 8 ticks treated"}, "[3]": {"details": "100 ppm, Replicate C, 2 ticks treated"}, "[4]": {"details": "1,000 ppm, Replicate A, 10 ticks treated"}, "[5]": {"details": "1,000 ppm, Replicate B, 8 ticks treated"}, "[6]": {"details": "1,000 ppm, Replicate C, 2 ticks treated"}, "[7]": {"details": "10,000 ppm, Replicate A, 10 ticks treated"}, "[8]": {"details": "10,000 ppm, Replicate B, 8 ticks treated"}, "[9]": {"details": "10,000 ppm, Replicate C, 2 ticks treated"}, "[10]": {"details": "100,000 ppm, Replicate A, 10 ticks treated"}, "[11]": {"details": "100,000 ppm, Replicate B, 8 ticks treated"}, "[12]": {"details": "100,000 ppm, Replicate C, 2 ticks treated"}, "[13]": {"details": "Treatment 3: 1,000 ppm, compared to control"}, "[14]": {"details": "Treatment 4: 10,000 ppm, compared to control"}, "[15]": {"details": "Treatment 5: 100,000 ppm, compared to control"}}, "note": "Like-named read-outs stand apart in the source and are kept apart here.", "data": [{"smiles": "COC(C)(C)CCC[C@H](C)C/C=C/C(C)=C/C(=O)OC(C)C", "note": "[(S)-methoprene]", "values": [{"measurement": "Eggs Viable", "setting": "[1]", "result": 1.65, "unit": "g"}, {"measurement": "Number of Ticks Laying Eggs (Day 13)", "setting": "[1]", "result": 10}, {"measurement": "Eggs Weight", "setting": "[1]", "result": 1.67, "unit": "g"}, {"measurement": "Eggs Hatch (%)", "setting": "100 ppm, Replicate A", "result": 99, "unit": "%"}, {"measurement": "Eggs Viable", "setting": "[2]", "result": 1.36, "unit": "g"}, {"measurement": "Number of Ticks Laying Eggs (Day 13)", "setting": "[2]", "result": 8}, {"measurement": "Eggs Weight", "setting": "[2]", "result": 1.36, "unit": "g"}, {"measurement": "Eggs Hatch (%)", "setting": "100 ppm, Replicate B", "result": 100, "unit": "%"}, {"measurement": "Eggs Viable", "setting": "[3]", "result": 0.18, "unit": "g"}, {"measurement": "Number of Ticks Laying Eggs (Day 13)", "setting": "[3]", "result": 2}, {"measurement": "Eggs Weight", "setting": "[3]", "result": 0.35, "unit": "g"}, {"measurement": "Eggs Hatch (%)", "setting": "100 ppm, Replicate C", "result": 50, "unit": "%"}, {"measurement": "Eggs Viable", "setting": "[4]", "result": 0.26, "unit": "g"}, {"measurement": "Number of Ticks Laying Eggs (Day 13)", "setting": "[4]", "result": 9}, {"measurement": "Eggs Weight", "setting": "[4]", "result": 1.03, "unit": "g"}, {"measurement": "Eggs Hatch (%)", "setting": "1,000 ppm, Replicate A", "result": 25, "unit": "%"}, {"measurement": "Eggs Viable", "setting": "[5]", "result": 0.29, "unit": "g"}, {"measurement": "Number of Ticks Laying Eggs (Day 13)", "setting": "[5]", "result": 8}, {"measurement": "Eggs Weight", "setting": "[5]", "result": 0.95, "unit": "g"}, {"measurement": "Eggs Hatch (%)", "setting": "1,000 ppm, Replicate B", "result": 30, "unit": "%"}, {"measurement": "Eggs Viable", "setting": "[6]", "result": 0.10, "unit": "g"}, {"measurement": "Number of Ticks Laying Eggs (Day 13)", "setting": "[6]", "result": 2}, {"measurement": "Eggs Weight", "setting": "[6]", "result": 0.28, "unit": "g"}, {"measurement": "Eggs Hatch (%)", "setting": "1,000 ppm, Replicate C", "result": 35, "unit": "%"}, {"measurement": "Eggs Viable", "setting": "[7]", "result": 0, "unit": "g"}, {"measurement": "Number of Ticks Laying Eggs (Day 13)", "setting": "[7]", "result": 10}, {"measurement": "Eggs Weight", "setting": "[7]", "result": 0.97, "unit": "g"}, {"measurement": "Eggs Hatch (%)", "setting": "10,000 ppm, Replicate A", "result": 0, "unit": "%"}, {"measurement": "Eggs Viable", "setting": "[8]", "result": 0, "unit": "g"}, {"measurement": "Number of Ticks Laying Eggs (Day 13)", "setting": "[8]", "result": 8}, {"measurement": "Eggs Weight", "setting": "[8]", "result": 0.57, "unit": "g"}, {"measurement": "Eggs Hatch (%)", "setting": "10,000 ppm, Replicate B", "result": 0, "unit": "%"}, {"measurement": "Eggs Viable", "setting": "[9]", "result": 0, "unit": "g"}, {"measurement": "Number of Ticks Laying Eggs (Day 13)", "setting": "[9]", "result": 2}, {"measurement": "Eggs Weight", "setting": "[9]", "result": 0.14, "unit": "g"}, {"measurement": "Eggs Hatch (%)", "setting": "10,000 ppm, Replicate C", "result": 0, "unit": "%"}, {"measurement": "Eggs Viable", "setting": "[10]", "result": 0, "unit": "g"}, {"measurement": "Number of Ticks Laying Eggs (Day 13)", "setting": "[10]", "result": 8}, {"measurement": "Eggs Weight", "setting": "[10]", "result": 0.59, "unit": "g"}, {"measurement": "Eggs Hatch (%)", "setting": "100,000 ppm, Replicate A", "result": 0, "unit": "%"}, {"measurement": "Eggs Viable", "setting": "[11]", "result": 0, "unit": "g"}, {"measurement": "Number of Ticks Laying Eggs (Day 13)", "setting": "[11]", "result": 8}, {"measurement": "Eggs Weight", "setting": "[11]", "result": 0.39, "unit": "g"}, {"measurement": "Eggs Hatch (%)", "setting": "100,000 ppm, Replicate B", "result": 0, "unit": "%"}, {"measurement": "Eggs Viable", "setting": "[12]", "result": 0, "unit": "g"}, {"measurement": "Number of Ticks Laying Eggs (Day 13)", "setting": "[12]", "result": 2}, {"measurement": "Eggs Weight", "setting": "[12]", "result": 0.05, "unit": "g"}, {"measurement": "Eggs Hatch (%)", "setting": "100,000 ppm, Replicate C", "result": 0, "unit": "%"}, {"measurement": "inhibition at 100 ppm", "setting": "Treatment 2: 100 ppm, compared to control, read-out: Reduction Viable Egg Mass Per Tick", "result": 0, "unit": "%"}, {"measurement": "inhibition at 100 ppm", "setting": "Treatment 2: 100 ppm, compared to control, read-out: Reduction in Viable Egg Mass", "result": 0, "unit": "%"}, {"measurement": "inhibition at 1000 ppm", "setting": "Treatment 3: 1,000 ppm, compared to control, read-out: Reduction Viable Egg Mass Per Tick", "result": 78, "unit": "%"}, {"measurement": "inhibition at 1000 ppm", "setting": "Treatment 3: 1,000 ppm, compared to control, read-out: Reduction in Viable Egg Mass", "result": 79, "unit": "%"}, {"measurement": "inhibition at 10000 ppm", "setting": "Treatment 4: 10,000 ppm, compared to control, read-out: Reduction Viable Egg Mass Per Tick", "result": 100, "unit": "%"}, {"measurement": "inhibition at 10000 ppm", "setting": "Treatment 4: 10,000 ppm, compared to control, read-out: Reduction in Viable Egg Mass", "result": 100, "unit": "%"}, {"measurement": "inhibition at 100000 ppm", "setting": "Treatment 5: 100,000 ppm, compared to control, read-out: Reduction Viable Egg Mass Per Tick", "result": 100, "unit": "%"}, {"measurement": "inhibition at 100000 ppm", "setting": "Treatment 5: 100,000 ppm, compared to control, read-out: Reduction in Viable Egg Mass", "result": 100, "unit": "%"}, {"measurement": "Egg Mass Per Tick", "setting": "Treatment 2: 100 ppm", "result": 0.169, "unit": "g"}, {"measurement": "Total Egg Mass", "setting": "Treatment 2: 100 ppm", "result": 3.38, "unit": "g"}, {"measurement": "Total Viable Egg Mass", "setting": "Treatment 2: 100 ppm", "result": 3.19, "unit": "g"}, {"measurement": "Viable Egg Mass Per Tick", "setting": "Treatment 2: 100 ppm", "result": 0.160, "unit": "g"}, {"measurement": "Reduction in Ticks Laying Eggs", "setting": "Treatment 2: 100 ppm, compared to control", "result": 0, "unit": "%"}, {"measurement": "Egg Mass Per Tick Reduction", "setting": "[13]", "result": 28, "unit": "%"}, {"measurement": "Reduction of Total Egg Mass", "setting": "[13]", "result": 32, "unit": "%"}, {"measurement": "Egg Mass Per Tick", "setting": "Treatment 3: 1,000 ppm", "result": 0.119, "unit": "g"}, {"measurement": "Total Egg Mass", "setting": "Treatment 3: 1,000 ppm", "result": 2.26, "unit": "g"}, {"measurement": "Total Viable Egg Mass", "setting": "Treatment 3: 1,000 ppm", "result": 0.65, "unit": "g"}, {"measurement": "Viable Egg Mass Per Tick", "setting": "Treatment 3: 1,000 ppm", "result": 0.034, "unit": "g"}, {"measurement": "Reduction in Ticks Laying Eggs", "setting": "[13]", "result": 5, "unit": "%"}, {"measurement": "Egg Mass Per Tick Reduction", "setting": "[14]", "result": 49, "unit": "%"}, {"measurement": "Reduction Viable Egg Mass Per Tick", "setting": "[14]", "result": 100, "unit": "%"}, {"measurement": "Reduction of Total Egg Mass", "setting": "[14]", "result": 49, "unit": "%"}, {"measurement": "Egg Mass Per Tick", "setting": "Treatment 4: 10,000 ppm", "result": 0.084, "unit": "g"}, {"measurement": "Total Egg Mass", "setting": "Treatment 4: 10,000 ppm", "result": 1.68, "unit": "g"}, {"measurement": "Total Viable Egg Mass", "setting": "Treatment 4: 10,000 ppm", "result": 0, "unit": "g"}, {"measurement": "Viable Egg Mass Per Tick", "setting": "Treatment 4: 10,000 ppm", "result": 0, "unit": "g"}, {"measurement": "Reduction in Ticks Laying Eggs", "setting": "[14]", "result": 0, "unit": "%"}, {"measurement": "Egg Mass Per Tick Reduction", "setting": "[15]", "result": 65, "unit": "%"}, {"measurement": "Reduction in Viable Egg Mass", "setting": "[15]", "result": 100, "unit": "%"}, {"measurement": "Reduction of Total Egg Mass", "setting": "[15]", "result": 69, "unit": "%"}, {"measurement": "Egg Mass Per Tick", "setting": "Treatment 5: 100,000 ppm", "result": 0.057, "unit": "g"}, {"measurement": "Total Egg Mass", "setting": "Treatment 5: 100,000 ppm", "result": 1.03, "unit": "g"}, {"measurement": "Total Viable Egg Mass", "setting": "Treatment 5: 100,000 ppm", "result": 0, "unit": "g"}, {"measurement": "Viable Egg Mass Per Tick", "setting": "Treatment 5: 100,000 ppm", "result": 0, "unit": "g"}, {"measurement": "Reduction in Ticks Laying Eggs", "setting": "[15]", "result": 10, "unit": "%"}]}]}
